Literature values as cited in patent US20070098676A1, “FUNCTIONALLY DIVERSE MACROMOLECULES AND THEIR SYNTHESIS” (priority 2005, published 2007).

Tested on: RSV
Settings: study conducted in 2001 (Huntley et al., 2002)

## NC(=O)CN(CC(N)=O)S(=O)(=O)c1cccc(Nc2nc(Nc3cccc(S(=O)(=O)N(CC(N)=O)CC(N)=O)c3)nc(Nc3ccc(-c4ccc(Nc5nc(Nc6cccc(S(=O)(=O)N(CC(N)=O)CC(N)=O)c6)nc(Nc6cccc(S(=O)(=O)N(CC(N)=O)CC(N)=O)c6)n5)cc4S(=O)(=O)O)c(S(=O)(=O)O)c3)n2)c1 [RFI-641]
  inhibition of RSV: potent and selective inhibitor of RSV
